Measured values: patent US20260125382A1, “COMPOUNDS FOR INHIBITING OR DEGRADING CDK2 AND/OR CDK9 AND MEDICINAL USE THEREOF” (KOREA RESEARCH INSTITUTE OF CHEMICAL TECHNOLOGY, priority 2022, published 2026)

Key:
CDK9 = target: T1, CDK9 (Homo sapiens, UniProt P50750); assay: CDK protein degradation activity (Western blotting), CDK9; type: cell-based; details: MDA-MB-231 cells, 16 hours, Western blot
T1 construct: endogenous in cells; host or cells: MDA-MB-231
How it was run: (§1)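 Seed MDA-MB-231 cells; next day add compound to 100 nM, 1 μM or 10 μM final, or DMSO. After 16 h, harvest and lyse in Triton X-100 buffer, run SDS-PAGE, probe for CDK2, CDK9 and tubulin.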

CDK2 = target: T2, CDK2 (Homo sapiens, UniProt P24941); assay: CDK protein degradation activity (Western blotting), CDK2; type: cell-based; details: MDA-MB-231 cells, 16 hours, Western blot
T2 construct: endogenous in cells; host or cells: MDA-MB-231
How it was run: as §1

T1 sequence (P50750 whole entry): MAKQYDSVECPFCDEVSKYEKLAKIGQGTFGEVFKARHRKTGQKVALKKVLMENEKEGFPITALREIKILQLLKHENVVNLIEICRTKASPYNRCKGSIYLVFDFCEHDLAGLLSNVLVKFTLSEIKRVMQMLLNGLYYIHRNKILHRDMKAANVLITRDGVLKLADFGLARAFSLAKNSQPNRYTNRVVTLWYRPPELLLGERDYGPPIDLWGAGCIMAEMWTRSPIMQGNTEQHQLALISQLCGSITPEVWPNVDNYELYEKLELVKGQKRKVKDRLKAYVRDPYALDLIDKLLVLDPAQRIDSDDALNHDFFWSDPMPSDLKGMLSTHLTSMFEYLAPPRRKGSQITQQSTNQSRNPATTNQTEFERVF

Row | Compound | Enzyme degradation CDK9 (% remaining) @ 0.1 μM (CDK9) | Enzyme degradation CDK9 (% remaining) @ 1 μM (CDK9) | Enzyme degradation CDK9 (% remaining) @ 10 μM (CDK9) | Enzyme degradation CDK2 (% remaining) @ 0.1 μM (CDK2) | Enzyme degradation CDK2 (% remaining) @ 1 μM (CDK2) | Enzyme degradation CDK2 (% remaining) @ 10 μM (CDK2)
1 | Cc1cccc(C(=O)N[C@H]2C[C@@H](n3cnc4c(NCc5ccc(OCCCN6CCN(c7ccc8c(c7)C(=O)N(C7CCC(=O)NC7=O)C8=O)CC6)cc5)ncnc43)C2)n1 (stereo partly drawn) [Compound 116, N-((1s,3s)-3-(6-((4-(3-(4-(2-(2,6-dioxopiperidin-3-yl)-1,3-dioxoisoindolin-5-yl)piperazin-1-yl)propoxy)benzyl)amino)-9H-purin-9-yl)cyclobutyl)-6-methylpicolinamide] | 10% | 0% | 0% | 30% | 40% | 50%
2 | Cc1cccc(C(=O)N[C@H]2C[C@@H](n3cnc4c(NCc5ccc(OCCCN6CCN(c7cccc8c7C(=O)N([C@H]7CCC(=O)NC7=O)C8=O)CC6)cc5)ncnc43)C2)n1 [Compound 117, N-((1s,3s)-3-(6-((4-(3-(4-(2-(2,6-dioxopiperidin-3-yl)-1,3-dioxoisoindolin-4-yl)piperazin-1-yl)propoxy)benzyl)amino)-9H-purin-9-yl)cyclobutyl)-6-methylpicolinamide] | 10% | 10% | 0% | 80/80/80% | 80/80/80% | 80/80/80%
3 | Cc1cccc(C(=O)NC2CC(n3cnc4c(NCCC5CCN(CC6CCN(C(=O)COc7cccc8c7C(=O)N([C@H]7CCC(=O)NC7=O)C8=O)CC6)CC5)ncnc43)C2)n1 (stereo partly drawn) [Compound 122, N-((1s,3s)-3-(6-((2-(1-((1-(2-((2-(2,6-dioxopiperidin-3-yl)-1,3-dioxoisoindolin-4-yl)oxy)acetyl)piperidin-4-yl)methyl)piperidin-4-yl)ethyl)amino)-9H-purin-9-yl)cyclobutyl)-6-methylpicolinamide] | 10% | 0% | 0% | 30% | 10% | 0%
4 | Cc1cccc(C(=O)NC2CC(n3cnc4c(NCCC5CCN(CC6CCN(C(=O)CNc7cccc8c7C(=O)N([C@H]7CCC(=O)NC7=O)C8=O)CC6)CC5)ncnc43)C2)n1 (stereo partly drawn) [Compound 123, N-((1s,3s)-3-(6-((2-(1-((1-((2-(2,6-dioxopiperidin-3-yl)-1,3-dioxoisoindolin-4-yl)glycyl)piperidin-4-yl)methyl)piperidin-4-yl)ethyl)amino)-9H-purin-9-yl)cyclobutyl)-6-methylpicolinamide] | 0/0/0% | 0/0/0% | 0/0/0% | 10% | 10% | 20%
5 | Cc1cccc(C(=O)N[C@H]2C[C@@H](n3cnc4c(NCCC5CCN(CC6CCN(C(=O)COc7ccc8c(c7)C(=O)N([C@H]7CCC(=O)NC7=O)C8=O)CC6)CC5)ncnc43)C2)n1 [Compound 124, N-((1s,3s)-3-(6-((2-(1-((1-(2-((2-(2,6-dioxopiperidin-3-yl)-1,3-dioxoisoindolin-5-yl)oxy)acetyl)piperidin-4-yl)methyl)piperidin-4-yl)ethyl)amino)-9H-purin-9-yl)cyclobutyl)-6-methylpicolinamide] | 0/0/0% | 0/0/0% | 0/0/0% | 40% | 20% | 10%
6 | Cc1cccc(C(=O)NC2CC(n3cnc4c(NCc5cccc(N6CCN(c7cccc8c7C(=O)N([C@H]7CCC(=O)NC7=O)C8=O)CC6)c5)ncnc43)C2)n1 (stereo partly drawn) [Compound 126, N-((1s,3s)-3-(6-((3-(4-(2-(2,6-dioxopiperidin-3-yl)-1,3-dioxoisoindolin-4-yl)piperazin-1-yl)benzyl)amino)-9H-purin-9-yl)cyclobutyl)-6-methylpicolinamide] | 80% | 70% | 70% | 80% | 70% | 70%
7 | Cc1cccc(C(=O)NC2CC(n3cnc4c(NCc5cccc(N6CCN(C(=O)COc7cccc8c7C(=O)N([C@H]7CCC(=O)NC7=O)C8=O)CC6)c5)ncnc43)C2)n1 (stereo partly drawn) [Compound 128, N-((1s,3s)-3-(6-((3-(4-(2-((2-(2,6-dioxopiperidin-3-yl)-1,3-dioxoisoindolin-4-yl)oxy)acetyl)piperazin-1-yl)benzyl)amino)-9H-purin-9-yl)cyclobutyl)-6-methylpicolinamide] | 90% | 60% | 100% | 90% | 50% | 100%
8 | Cc1cccc(C(=O)N[C@H]2C[C@@H](n3cnc4c(NCc5cccc(N6CCN(C(=O)CNc7cccc8c7C(=O)N(C7CCC(=O)NC7=O)C8=O)CC6)c5)ncnc43)C2)n1 (stereo partly drawn) [Compound 130, N-((1s,3s)-3-(6-((3-(4-((2-(2,6-dioxopiperidin-3-yl)-1,3-dioxoisoindolin-4-yl)glycyl)piperazin-1-yl)benzyl)amino)-9H-purin-9-yl)cyclobutyl)-6-methylpicolinamide] | 100% | 40% | 20% | 60% | 40% | 10%
9 | Cc1cccc(C(=O)N[C@H]2C[C@@H](n3cnc4c(NCc5cccc(N6CCN(C(=O)CNc7ccc8c(c7)C(=O)N([C@H]7CCC(=O)NC7=O)C8=O)CC6)c5)ncnc43)C2)n1 [Compound 131, N-((1s,3s)-3-(6-((3-(4-((2-(2,6-dioxopiperidin-3-yl)-1,3-dioxoisoindolin-5-yl)glycyl)piperazin-1-yl)benzyl)amino)-9H-purin-9-yl)cyclobutyl)-6-methylpicolinamide] | 60/60/60% | 60/60/60% | 60/60/60% | 80% | 100% | 100%
10 | Cc1cccc(C(=O)N[C@H]2C[C@@H](n3cnc4c(NCc5cccc(N6CCN(CC7CCN(C(=O)COc8cccc9c8C(=O)N(C8CCC(=O)NC8=O)C9=O)CC7)CC6)c5)ncnc43)C2)n1 (stereo partly drawn) [Compound 132, N-((1s,3s)-3-(6-((3-(4-((1-(2-((2-(2,6-dioxopiperidin-3-yl)-1,3-dioxoisoindolin-4-yl)oxy)acetyl)piperidin-4-yl)methyl)piperazin-1-yl)benzyl)amino)-9H-purin-9-yl)cyclobutyl)-6-methylpicolinamide] | 70% | 10% | 0% | 60% | 40% | 40%
11 | Cc1cccc(C(=O)NC2CC(n3cnc4c(NCc5cccc(N6CCN(CC7CCN(C(=O)COc8ccc9c(c8)C(=O)N([C@H]8CCC(=O)NC8=O)C9=O)CC7)CC6)c5)ncnc43)C2)n1 (stereo partly drawn) [Compound 133, N-((1s,3s)-3-(6-((3-(4-((1-(2-((2-(2,6-dioxopiperidin-3-yl)-1,3-dioxoisoindolin-5-yl)oxy)acetyl)piperidin-4-yl)methyl)piperazin-1-yl)benzyl)amino)-9H-purin-9-yl)cyclobutyl)-6-methylpicolinamide] | 80% | 0% | 0% | 90% | 70% | 80%
12 | Cc1cccc(C(=O)NC2CC(n3cnc4c(NCc5cccc(N6CCN(CC7CCN(C(=O)CNc8cccc9c8C(=O)N([C@H]8CCC(=O)NC8=O)C9=O)CC7)CC6)c5)ncnc43)C2)n1 (stereo partly drawn) [Compound 134, N-((1s,3s)-3-(6-((3-(4-((1-((2-(2,6-dioxopiperidin-3-yl)-1,3-dioxoisoindolin-4-yl)glycyl)piperidin-4-yl)methyl)piperazin-1-yl)benzyl)amino)-9H-purin-9-yl)cyclobutyl)-6-methylpicolinamide] | 0/0/0% | 0/0/0% | 0/0/0% | 60% | 50% | 50%
13 | Cc1cccc(C(=O)NC2CC(n3cnc4c(NCc5cccc(N6CCN(CC7CCN(C(=O)CNc8ccc9c(c8)C(=O)N([C@H]8CCC(=O)NC8=O)C9=O)CC7)CC6)c5)ncnc43)C2)n1 (stereo partly drawn) [Compound 135, N-((1s,3s)-3-(6-((3-(4-((1-((2-(2,6-dioxopiperidin-3-yl)-1,3-dioxoisoindolin-5-yl)glycyl)piperidin-4-yl)methyl)piperazin-1-yl)benzyl)amino)-9H-purin-9-yl)cyclobutyl)-6-methylpicolinamide] | 0/0/0% | 0/0/0% | 0/0/0% | 70% | 60% | 40%
